Test results taken from patent EP2739618B1, “QUINAZOLINE COMPOUNDS AS SERINE/THREONINE KINASE INHIBITORS” (Array Biopharma, Inc., priority 2011, dated 2013).

How the values were obtained:
[1] = molecular target: T1, human ERK-2 (Mitogen Activated Kinase 1) (Homo sapiens, UniProt P28482); assay: ERK-2 Enzymatic Assay; format: biochemical; details: 5nM ERK-2 enzyme, 25µM ATP, S/T17 peptide substrate, single assay or mean of multiple assays
T1 construct: N-terminal 6-His fusion protein in E. coli and corresponding to aa 8-360; 6-His (N); made in house; host or cells: E. coli
T1 sequence (P28482 8-360): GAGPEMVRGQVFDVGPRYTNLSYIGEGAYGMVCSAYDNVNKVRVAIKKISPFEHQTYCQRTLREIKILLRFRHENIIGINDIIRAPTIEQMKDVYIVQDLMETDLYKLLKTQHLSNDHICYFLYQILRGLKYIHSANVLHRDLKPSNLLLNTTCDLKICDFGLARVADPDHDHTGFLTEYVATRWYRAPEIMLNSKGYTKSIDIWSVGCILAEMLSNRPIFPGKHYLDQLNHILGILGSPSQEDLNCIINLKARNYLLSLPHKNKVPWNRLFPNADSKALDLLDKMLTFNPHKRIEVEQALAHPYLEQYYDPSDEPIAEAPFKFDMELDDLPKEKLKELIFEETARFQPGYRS
How it was run: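 Recombinant N-terminal 6-His human ERK-2 (aa 8-360, E. coli) was tested with fluorescent Omnia S/T17 peptide at ambient temperature. Fluorescence (ex 340/em 495 nm) was read every 50 s for ~30 min.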

HCT116 cells = assay: Cell Proliferation/Viability Assay (Cell Titer-Blue); format: cell-based; details: Homo sapiens, HCT-116, 3-day (72-hour) incubation, single assay or mean of multiple assays
Description: Cell Proliferation/Viability Assay
Viable cells after a 3-day (72-hour) incubation with ERK compounds were quantified using the Cell Titer-Blue Cell Viability Assay from Promega.
Materials and Methods: HCT116 cells were plated in 96 well micro-plates at a density of 1,000 cells/well. The cells were allowed to attach to micro-plate overnight at 37 °C/5% CO2. After overnight attachment, diluted compounds were then added to the cells at a final concentration of 0.5% DMSO. After 3 days (72 hours) at 37 °C/5% CO2, the number of viable cells was determined using the Cell Titer-Blue Cell Viability Assay from Promega. Briefly, Cell Titer-Blue reagent were added to the cells and incubated for 1 hour. Fluorescence (560nmexcitation/590nmemission) was then read using a fluorescence micro-plate reader. Background from high concentration Erk-inhibited wells was subtracted. Representative data is in TABLE III (infra). The reported IC50 may be from a single assay or the mean of multiple assays.

[2] = tested on: PMA-stimulated P90RSK(Ser380) phosphorylation; assay: Cellular P90RSK(Ser380) Phosphorylation Assay; format: cell-based; details: Homo sapiens; HepG2 cells, 1.5 h compound incubation, PMA 100ng/mL 30 min, normalized to GAPDH signal; single assay or mean of multiple assays
Description: Cellular P90RSK(Ser380) Phosphorylation Assay
Inhibition of PMA-stimulated P90RSK(Ser380) phosphorylation was determined by the following in vitro cellular mechanistic assay, which comprises incubating cells with a compound for 1.5 h and quantifying fluorescent pP90RSK(Ser380) signal on fixed cells and normalizing to GAPDH signal.
Materials and Methods: HepG2 cells were obtained from ATCC and grown in DMEM supplemented with 10% fetal bovine serum. Cells were plated in 96-well plates at 35,000 cells/well and allowed to attach overnight at 37 °C/5% CO2. Diluted compounds were then added at a final concentration of 0.5% DMSO. After 1.5 h compound incubation, cells were stimulated with the addition of PMA (phorbol 12-myristate 13-acetate) at a final concentration of 100ng/mL; the PMA stimulation was a 30-min incubation at 37 °C/5% CO2. After the 30-minute PMA stimulation, cells were washed with PBS and fixed in 3.7% formaldehyde in PBS at room temperature for 15-20 min. This was followed by another wash in PBS and then permeabilization in 100% MeOH at room temperature for 10-15 min. Following the permeabilization incubation, cells were washed in PBS/0.05% Tween-20, followed by a block in Odyssey blocking buffer (LI-COR Biosciences) for at least 1 hour. Antibodies to phosphorylated P90RSK(Ser380) (Cell Signaling #9335, rabbit monoclonal) and GAPDH (Fitzgerald 10R-G109a, mouse monoclonal) were added to the cells and incubated overnight at 4 °C. pP90RSK(Ser380) antibody was used at a 1:250 dilution; GAPDH was used at a 1:10,000 dilution. After washing with PBS/0.05% Tween-20, the cells were incubated with fluorescently-labeled secondary antibodies (Anti-rabbit-Alexa Flour680, Invitrogen Cat#A21109; Anti-mouse-IRDye800CW, Rockland Inc. Cat#610-131-121) for 1 h. Both secondary antibodies were used at a 1:1000 dilution. Cells were then washed and analyzed for fluorescence at both wavelengths using the Odyssey Infrared Imaging System (LI-COR Biosciences). Phosphorylated P90RSK(Ser380) signal was normalized to GAPDH signal. Representative data is in TABLE III (infra). The reported IC50 may be from a single assay or the mean of multiple assays.

IC50 ([1]; TABLE I)	IC50 (HCT116 cells)	IC50 ([1]; TABLE II)	SMILES	IC50 [2]
1.4 nM	274 nM	–	Cn1ccc([C@@H](NC(=O)c2cc(F)c3cnc(NC4CCOCC4)nc3c2)c2ccc(Cl)c(F)c2)n1 [Compound I-22, (S)-N-((4-chloro-3-fluorophenyl)(1-methyl-1H-pyrazol-3-yl)methyl)-5-fluoro-2-(tetrahydro-2H-pyran-4-ylamino)quinazoline-7-carboxamide]	23.5 nM
5 nM	–	–	COc1ccc(C(NC(=O)c2ccc3cnc(NC4CCOCC4)nc3c2)c2cnn(CCO)c2)cc1F (centres unmarked) [Compound I-67, N-((3-fluoro-4-methoxyphenyl) (1-(2-hydroxyethyl)-1H-pyrazol-4-yl)methyl)-2-(tetrahydro-2H-pyran-4-ylamino) quinazoline-7-carboxamide]	165 nM
–	–	2.1 nM	COc1ccc([C@H](NC(=O)c2ccc3cnc(Nc4cc(C)nn4C)nc3c2)c2cnn(C)c2)cc1F [II-18]	364 nM
–	875 nM	–	C[C@@H](CO)Nc1ncc2ccc(C(=O)N[C@H](c3ccc(Cl)c(F)c3)c3cnn(C)c3)cc2n1 (stereo in doubt) [Compound I-14, 2-((S)-2-hydroxy-1-methyl-ethylamino)-quinazoline-7-carboxylic acid [(R)-(4-chloro-3-fluoro-phenyl)-(1-methyl-1H-pyrazol-4-yl)-methyl]-amide]	59.8 nM
–	2400 nM	–	C[C@@H](CO)Nc1ncc2ccc(C(=O)NC(c3ccc(Cl)c(F)c3)c3cnn(C)c3)cc2n1 (stereo partly drawn) [Compound I-1, N-((4-chloro-3-fluorophenyl)(1-methyl-1H-pyrazol-4-yl)methyl)-2-((S)-1-hydroxypropan-2-ylamino)quinazoline-7-carboxamide]	75.5 nM
–	–	13 nM	COc1ccc([C@H](NC(=O)c2ccc3cnc(NC4CSC4)nc3c2)c2cnn(C)c2)cc1F [II-5]	50.5 nM
3.6 nM	5000 nM	–	O=C(NC(c1ccc(Cl)c(F)c1)c1ncno1)c1ccc2cnc(NC3CCOCC3)nc2c1 (centres unmarked) [Compound I-34, 2-(tetrahydro-pyran-4-ylamino)-quinazoline-7-carboxylic acid [(4-chloro-3-fluoro-phenyl)-[1,2,4]oxadiazol-5-yl-methyl]-amide]	79.1 nM
–	–	3.1 nM	Cn1cc([C@@H](NC(=O)c2ccc3cnc(Nc4ccnn4C)nc3c2)c2ccc(Cl)c(F)c2)cn1 [II-25]	19.9 nM
2 nM	44 nM	–	C[C@@H]1CC[C@H]([C@@H](NC(=O)c2ccc3cnc(NC4CCOCC4)nc3c2)c2ccc(Cl)c(F)c2)N1 [Compound I-35, 2-(tetrahydropyran-4-ylamino)-quinazoline-7-carboxylic acid [(S)-(4-chloro-3-fluoro-phenyl)-((2R,5R)-S-methyl-pyrrolidin-2-yl)-methyl]-amide]	5.3 nM
7.3 nM	–	–	C[C@H](Nc1ncc2ccc(C(=O)N[C@@H](c3ccc(Cl)c(F)c3)[C@@H]3CCCN3)cc2n1)C(F)(F)F [Compound I-40, 2-((S)-2,2,2-trifluoro-1-methyl-ethylamino)-quinazoline-7-carboxylic acid [(S)-(4-chloro-3-fluoro-phenyl)-(S)-pyrrolidin-2-yl-methyl]-amide]	2900 nM
–	–	–	COc1ccc([C@H](NC(=O)c2cc(F)c3cnc(N[C@H]4CC[C@H](O)CC4)nc3c2)c2cnn(C)c2)cc1F [II-13]	84.4 nM
1.2 nM	10 nM	–	O=C(N[C@@H](c1ccc(F)c(Cl)c1)[C@@]1(F)CCNC1)c1ccc2cnc(NC3CCOCC3)nc2c1 [Compound I-39]	17.4 nM
0.55 nM	–	–	Cn1cc([C@@H](NC(=O)c2ccc3cnc(NC4CCOCC4)nc3c2)c2ccc(OC(F)F)cc2)cn1 [Compound I-41, 2-(tetrahydropyran-4-ylamino)-quinazoline-7-carboxylic acid [(S)-(4-difluoromethoxy-phenyl)-(1-methyl-1H-pyrazol-4-yl)-methyl]-amide]	115 nM
6 nM	–	–	COc1ccc([C@H](NC(=O)c2cc(F)c3cnc(NCC4CC4)nc3c2)c2cnn(C)c2)cc1F [Compound I-60, 2-(Cyclopropylmethyl-amino)-5-fluoro-quinazoline-7-carboxylic acid [(S)-(3-fluoro-4-methoxy-phenyl)-(1-methyl-1H-pyrazol-4-yl)-methyl]-amide]	334 nM
6 nM	–	–	COc1ccc([C@H](NC(=O)c2cc(F)c3cnc(NC4(C)COC4)nc3c2)c2cnn(C)c2)cc1F [Compound I-64, 5-Fluoro-2-(3-methyl-oxetan-3-ylamino)-quinazoline-7-carboxylic acid [(S)-(3-fluoro-4-methoxy-phenyl)-(1-methyl-1H-pyrazol-4-yl)-methyl]-amide]	978 nM
2.5 nM	2100 nM	–	Cn1cc([C@@H](NC(=O)c2ccc3cnc(N[C@H]4CCOC[C@H]4F)nc3c2)c2ccc(Cl)c(F)c2)cn1 [Compound I-28, 2-((3S,4S)-3-fluoro-tetrahydropyran-4-ylamino)-quinazoline-7-carboxylic acid [(S)-(4-chloro-3-fluoro-phenyl)-(1-methyl-1H-pyrazol-4-yl)-methyl]-amide]	87.4 nM
1.4 nM	–	–	Cn1cc([C@@H](NC(=O)c2ccc3cnc(N[C@@H]4CCO[C@H](CO)C4)nc3c2)c2ccc(Cl)c(F)c2)cn1 [Compound I-47, N-((S)-(4-chloro-3-fluorophenyl)(1-methyl-1H-pyrazol-4-yl)methyl)-2-((2S,4R)-2-(hydroxymethyl)tetrahydro-2H-pyran-4-ylamino)quinazoline-7-carboxamide]	29 nM
2 nM	–	–	COc1ccc([C@H](NC(=O)c2cc(F)c3cnc(N[C@@H]4CCOC4)nc3c2)c2cnn(C)c2)cc1F [Compound I-61, 5-Fluoro-N-((S)-(3-fluoro-4-methoxyphenyl)(1-methyl-1H-pyrazol-4-yl)methyl)-2-((R)-tetrahydrofuran-3-ylamino)quinazoline-7-carboxamide]	66 nM
–	851 nM	–	Cn1cc(C(NC(=O)c2ccc3cnc(NC4CCOCC4)nc3c2)c2ccc(Cl)c(F)c2)cn1 (centres unmarked) [Compound I-2, 2-(Tetrahydro-pyran-4-ylamino)-quinazoline-7-carboxylic acid [(4-chloro-3-fluoro-phenyl)-(1-methyl-1H-pyrazol-4-yl)-methyl]-amide]	22.7 nM
2.3 nM	298 nM	–	CC(C)Nc1ncc2ccc(C(=O)N[C@H](c3ccc(C(F)(F)F)c(F)c3)[C@@H]3CCCN3)cc2n1 (stereo in doubt) [Compound I-5, 2-isopropylamino-quinazoline-7-carboxylic acid [(S)-(3-fluoro-4-trifluoromethyl-phenyl)-(R)-pyrrolidin-2-yl-methyl]-amide]	11.7 nM
2.1 nM	272 nM	–	O=C(N[C@@H](c1ccc(C(F)(F)F)c(F)c1)[C@@H]1CCCN1)c1ccc2cnc(NC3CCOCC3)nc2c1 [Compound I-3, 2-(Tetrahydropyran-4-ylamino)-quinazoline-7-carboxylic acid [(S)-(3-fluoro-4-tnfluoromethyl-phenyl)-(S)-pyrrolidin-2-yl-methyl]-amide]	46 nM
–	–	2.9 nM	COc1ccc([C@H](NC(=O)c2ccc3cnc(Nc4ccnn4C)nc3c2)c2ccnn2C)cc1F [II-38]	38 nM
